Measured values published in patent US20240400591A1 (Jacobio Pharmaceuticals Co., Ltd., priority 2021, published 2024).

Target: T1, His-p53 Y220C (94-294) protein (Homo sapiens, UniProt P04637, Y220C)
T1 construct: His-p53 Y220C (94-294) protein
Experiment: In vitro DNA binding assay (HTRF)
Format: biochemical
Conditions: % activation normalized to 2 μM Ref-1a high control

## CCc1c(C#CCNc2ccc(S(N)(=O)=O)cc2)sc2c(NC3CCN(C)CC3)cccc12 [Example 1, 4-((3-(3-ethyl-7-((1-methylpiperidin-4-yl)amino)benzo[b]thiophen-2-yl)prop-2-yn-1-yl)amino)benzenesulfonamide]
  EC50: 0.345 µM

## COc1cc(S(C)(=O)=O)ccc1NCC#Cc1sc2c(NC3CC4(CCN(C)CC4)C3)cccc2c1CC(F)(F)F [Example 33, N-(2-(3-((2-methoxy-4-(methylsulfonyl)phenyl)amino)prop-1-yn-1-yl)-3-(2,2,2-trifluoroethyl)benzo[b]thiophen-7-yl)-7-methyl-7-azaspiro[3.5]nonan-2-amine]
  EC50: 0.621 µM

## COc1cc(S(C)(=O)=O)ccc1NCC#Cc1sc2c(NC3C4CCC3CN(C)C4)cccc2c1CC(F)(F)F (centres unmarked) [Example 25, N-(2-(3-((2-methoxy-4-(methylsulfonyl)phenyl)amino)prop-1-yn-1-yl)-3-(2,2,2-trifluoroethyl)benzo[b]thiophen-7-yl)-3-methyl-3-azabicyclo[3.2.1]octan-8-amine]
  EC50: 0.312 µM

## COc1nc(C(N)=O)ccc1NCC#Cc1sc2c(NC3CCN(C)CC3F)cccc2c1CC(F)(F)F (centres unmarked) [Example 63, 5-((3-(7-(((Z)-3-fluoro-1-methylpiperidin-4-yl)amino)-3-(2,2,2-trifluoroethyl)benzo[b]thiophen-2-yl)prop-2-yn-1-yl)amino)-6-methoxypicolinamide]
  EC50: 0.22 µM

## COc1cc(S(C)(=O)=O)ccc1NCC#Cc1sc2c(NC3CCN(CCF)CC3)cccc2c1CC(F)(F)F [Example 36, 1-(2-fluoroethyl)-N-(2-(3-((2-methoxy-4-(methylsulfonyl)phenyl)amino)prop-1-yn-1-yl)-3-(2,2,2-trifluoroethyl)benzo[b]thiophen-7-yl)piperidin-4-amine]
  EC50: 0.305 µM

## CNC(=O)c1ccc(NCC#Cc2sc3c(N[C@@H]4CCN(C)C[C@@H]4F)cccc3c2CC(F)(F)F)c(C#N)c1 (racemic) [Example 95, 3-cyano-4-((3-(7-(((Z)-3-fluoro-1-methylpiperidin-4-yl)amino)-3-(2,2,2-trifluoroethyl)benzo[b]thiophen-2-yl)prop-2-yn-1-yl)amino)-N-methylbenzamide]
  EC50: 0.133 µM

## COc1cc(S(C)(=O)=O)ccc1NCC#Cc1sc2c(NC3CC4CC3CN4)cccc2c1CC(F)(F)F (centres unmarked) [Example 28, N-(2-(3-((2-methoxy-4-(methylsulfonyl)phenyl)amino)prop-1-yn-1-yl)-3-(2,2,2-trifluoroethyl)benzo[b]thiophen-7-yl)-2-azabicyclo[2.2.1]heptan-5-amine]
  EC50: 0.284 µM

## COc1cc(P(C)(C)=O)ccc1NCC#Cc1sc2c(N[C@H]3CCN(C)C[C@H]3Cl)cccc2c1CC(F)(F)F [Example 144, (3R,4S)-3-chloro-N-[2-[3-(4-dimethylphosphoryl-2-methoxy-anilino)prop-1-ynyl]-3-(2,2,2-trifluoroethyl)benzothiophen-7-yl]-1-methyl-piperidin-4-amine]
  EC50: 0.102 µM

## COc1cc(S(=O)(=O)NCC(O)CO)ccc1NCC#Cc1sc2c(NC3CCN(C)CC3)cccc2c1CC(F)(F)F (centres unmarked) [Example 24, N-(2,3-dihydroxypropyl)-3-methoxy-4-((3-(7-((1-methylpiperidin-4-yl)amino)-3-(2,2,2-trifluoroethyl)benzo[b]thiophen-2-yl)prop-2-yn-1-yl)amino)benzenesulfonamide]
  EC50: 0.056 µM

## COc1cc(S(C)(=O)=O)ccc1NCC#Cc1sc2c(NC3CCN(C)CC3)cccc2c1CC(F)(F)F [Example 3, N-(2-(3-((2-methoxy-4-(methylsulfonyl)phenyl)amino)prop-1-yn-1-yl)-3-(2,2,2-trifluoroethyl)benzo[b]thiophen-7-yl)-1-methylpiperidin-4-amine]
  EC50: 0.081 µM

## COCCCN1CCC(Nc2cccc3c(CC(F)(F)F)c(C#CCNc4ccc(S(C)(=O)=O)cc4OC)sc23)CC1 [Example 20, N-[2-[3-(2-methoxy-4-methylsulfonyl-anilino)prop-1-ynyl]-3-(2,2,2-trifluoroethyl)benzothiophen-7-yl]-1-(3-methoxypropyl)piperidin-4-amine]
  EC50: 0.188 µM

## CCP(=O)(CC)c1ccc(NCC#Cc2sc3c(NC4CCN(C5CCOCC5)CC4)cccc3c2CC(F)(F)F)c(OC)c1 [Example 155, diethyl(3-methoxy-4-((3-(7-((1-(tetrahydro-2H-pyran-4-yl)piperidin-4-yl)amino)-3-(2,2,2-trifluoroethyl)benzo[b]thiophen-2-yl)prop-2-yn-1-yl)amino)phenyl)phosphine oxide]
  EC50: 0.147 µM

## CCN1CC[C@@H](Nc2cccc3c(CC(F)(F)F)c(C#CCNc4ccc(P(C)(C)=O)cc4OC)sc23)[C@@H](F)C1 (racemic) [Example 100, (4-((3-(7-(((Z)-1-ethyl-3-fluoropiperidin-4-yl)amino)-3-(2,2,2-trifluoroethyl)benzo[b]thiophen-2-yl)prop-2-yn-1-yl)amino)-3-methoxyphenyl)dimethylphosphine oxide]
  EC50: 0.04 µM

## COc1cc(S(N)(=O)=O)ccc1NCC#Cc1sc2c(NC3CCN(C)CC3F)cccc2c1CC(F)(F)F (centres unmarked) [Example 40, 4-((3-(7-(((Z)-3-fluoro-1-methylpiperidin-4-yl)amino)-3-(2,2,2-trifluoroethyl)benzo[b]thiophen-2-yl)prop-2-yn-1-yl)amino)-3-methoxybenzenesulfonamide]
  EC50: 0.06 µM

## COc1nc(P(C)(C)=O)ccc1NCC#Cc1sc2c(N[C@@H]3CCN(C4CCOCC4)C[C@@H]3F)cccc2c1CC(F)(F)F [Example 179, (5-((3-(7-(((3S,4R)-3-fluoro-1-(tetrahydro-2H-pyran-4-yl)piperidin-4-yl)amino)-3-(2,2,2-trifluoroethyl)benzo[b]thiophen-2-yl)prop-2-yn-1-yl)amino)-6-methoxypyridin-2-yl)dimethylphosphine oxide]
  EC50: 0.134 µM

## CN1CC[C@H](Nc2cccc3c(CC(F)(F)F)c(C#CCNc4ccc(S(N)(=O)=O)cc4)sc23)[C@H](F)C1 (racemic) [Example 5, 4-((3-(7-(((3R,4S)-3-fluoro-1-methylpiperidin-4-yl)amino)-3-(2,2,2-trifluoroethyl)benzo[b]thiophen-2-yl)prop-2-yn-1-yl)amino)benzenesulfonamide]
  EC50: 0.032 µM

## CN1CC[C@@H](Nc2cccc3c(CC(F)(F)F)c(C#CCNc4ccc(P(C)(C)=O)c5c4OC(F)(F)O5)sc23)[C@@H](F)C1 [Example 164, (2,2-difluoro-7-((3-(7-(((3S,4R)-3-fluoro-1-methylpiperidin-4-yl)amino)-3-(2,2,2-trifluoroethyl)benzo[b]thiophen-2-yl)prop-2-yn-1-yl)amino)benzo[d][1,3]dioxol-4-yl)dimethylphosphine oxide]
  EC50: 0.12 µM

## CN1CCC(Nc2cccc3c(CC(F)(F)F)c(C#CCNc4ccc(S(C)(=O)=O)cc4OCC(F)(F)F)sc23)CC1 [Example 13, 1-methyl-N-(2-(3-((4-(methylsulfonyl)-2-(2,2,2-trifluoroethoxy)phenyl)amino)prop-1-yn-1-yl)-3-(2,2,2-trifluoroethyl)benzo[b]thiophen-7-yl)piperidin-4-amine]
  EC50: 0.17 µM

## CN1CC[C@@H](Nc2cccc3c(CC(F)(F)F)c(C#CCNc4cc(P(C)(C)=O)n[nH]4)sc23)[C@@H](F)C1 [Example 204, (5-((3-(7-(((3S,4R)-3-fluoro-1-methylpiperidin-4-yl)amino)-3-(2,2,2-trifluoroethyl)benzo[b]thiophen-2-yl)prop-2-yn-1-yl)amino)-1H-pyrazol-3-yl)dimethylphosphine oxide]
  EC50: 0.816 µM

## COc1cc(S(C)(=O)=O)ccc1NCC#Cc1sc2c(N[C@H]3CC[C@H](N4CC5(COC5)C4)CC3)cccc2c1CC(F)(F)F [Example 17, trans-N-(4-(2-oxa-6-azaspiro[3.3]heptan-6-yl)cyclohexyl)-2-(3-((2-methoxy-4-(methylsulfonyl)phenyl)amino)prop-1-yn-1-yl)-3-(2,2,2-trifluoroethyl)benzo[b]thiophen-7-amine]
  EC50: 0.072 µM

## CN1CCC(Nc2cccc3c(CC(F)(F)F)c(C#CCNc4ccc(S(N)(=O)=O)cc4)sc23)CC1 [Example 4, 4-((3-(7-((1-methylpiperidin-4-yl)amino)-3-(2,2,2-trifluoroethyl)benzo[b]thiophen-2-yl)prop-2-yn-1-yl)amino) benzenesulfonamide]
  EC50: 0.099 µM

## COc1cc(S(C)(=O)=O)ccc1NCC#Cc1sc2c(NC3CCC(N(C)C)CC3)cccc2c1CC(F)(F)F (centres unmarked) [Example 16, N1-(2-(3-((2-methoxy-4-(methylsulfonyl)phenyl)amino)prop-1-yn-1-yl)-3-(2,2,2-trifluoroethyl)benzo[b]thiophen-7-yl)-N4,N4-dimethylcyclohexane-1,4-diamine]
  EC50: 0.124 µM

## COc1cc(S(C)(=O)=O)ccc1NCC#Cc1sc2c(NC3CCN(C)CC3F)cccc2c1CC(F)(F)F (centres unmarked) [Example 2, (Z)-3-fluoro-N-(2-(3-((2-methoxy-4-(methylsulfonyl)phenyl)amino)prop-1-yn-1-yl)-3-(2,2,2-trifluoroethyl)benzo[b]thiophen-7-yl)-1-methylpiperidin-4-amine]
  EC50: 0.044 µM

## COc1cc(P(C)(C)=O)ccc1NCC#Cc1sc2c(NC3CCN(C)CC3(F)F)cccc2c1CC(F)(F)F (centres unmarked) [Example 43, (4-((3-(7-((3,3-difluoro-1-methylpiperidin-4-yl)amino)-3-(2,2,2-trifluoroethyl)benzo[b]thiophen-2-yl)prop-2-yn-1-yl)amino)-3-methoxyphenyl)dimethylphosphine oxide]
  EC50: 0.39 µM

## COc1cc(S(C)(=O)=O)ccc1NCC#Cc1sc2c(N(C)C3CCN(C)CC3F)cccc2c1CC(F)(F)F (centres unmarked) [Example 42, (Z)-3-fluoro-N-(2-(3-((2-methoxy-4-(methylsulfonyl)phenyl)amino)prop-1-yn-1-yl)-3-(2,2,2-trifluoroethyl)benzo[b]thiophen-7-yl)-N,1-dimethylpiperidin-4-amine]
  EC50: 0.654 µM

## COc1cc(P(=O)(C2CC2)C2CC2)ccc1NCC#Cc1sc2c(N[C@H]3CCN(C)C[C@H]3F)cccc2c1CC(F)(F)F [Example 140, dicyclopropyl(4-((3-(7-(((3R,4S)-3-fluoro-1-methylpiperidin-4-yl)amino)-3-(2,2,2-trifluoroethyl)benzo[b]thiophen-2-yl)prop-2-yn-1-yl)amino)-3-methoxyphenyl)phosphine oxide]
  EC50: 0.129 µM
